Test results published in patent US20250057840A1, “COMPOSITIONS AND METHODS FOR THE TREATMENT OF DISEASES WITH ISOCITRATE DEHYDROGENASE 1/2 MUTATIONS” (Fred Hutchison Cancer Center, priority 2023, published 2025).
Read-outs that look alike come from different tables or passages of the source.

Columns and labels:
[1] = tested on: SNU-1079 cells (IDHm ICC); assay: MTT proliferation / cell viability assay in SNU-1079; assay type: cell-based, human; conditions: Homo sapiens, read-out: Proliferation IC50
Description: (§1) FIGS. 46A-46C are IC50 curves of IDH WT and mutant cells lines to S6K inhibitors. IDHm cells (SNU-1079 and RBE) and IDH WT cells (CCLP1 and HuCCT1) were treated with S6K inhibitors M2698 (FIG. 46A), PF-4708671 (FIG. 46B), and LY2584702 (FIG. 46C) for 7 days, and the cell viabilities were measured by MTT assay.

RBE cells (IDHm ICC) [2] = assay: MTT proliferation / cell viability assay in RBE; assay type: cell-based, human; conditions: Homo sapiens, read-out: Proliferation IC50
Description: as §1

[3] = tested on: HuCCT1 cells (IDH WT ICC); assay: MTT proliferation / cell viability assay in HuCCT1; assay type: cell-based, human; conditions: Homo sapiens, HuCCT-1, read-out: Proliferation IC50
Description: as §1

ICC2 cells (IDH WT ICC) [4] = assay: cells; conditions: Homo sapiens, read-out: Proliferation IC50
Description: (§2) Proliferation Assays. Cells were plated in 96-well plates (1,000 cells/well) in culture medium. […] The cells were allowed to grow 5-7 days until control wells were confluent. Viable cells were quantified by adding MTT (M-6494; ThermoFisher Scientific) at a final concentration of 1 mg/mL for 3 hours at 37° C. 100 μL/well of DMSO was added to solubilize formazan crystals. Absorbance was read at 490 nm and normalized to DMSO control. For each experimental condition, duplicate wells were seeded, and data is represented as mean±SEM among three independent experiments.

ICC5 cells (IDHm ICC) [5] = assay: cells; conditions: Homo sapiens, read-out: Proliferation IC50
Description: as §2

CCLP1 cells (IDH WT ICC) = assay: Survival curves in CCLP1; assay type: cell-based; conditions: Homo sapiens, CC-LP-1, FIG. 1B
[6] = tested on: mTOR, ERK, and STAT3 survival pathways (pS6K, pS6) in IDH WT ICC cell lines (HuCCT1, CCLP1, ICC2); assay: Western blot of survival pathways in IDH WT ICC cell lines; assay type: cell-based, human; conditions: 6 hours of dasatinib treatment; three IDH WT ICC lines
Description: Protein Isolation and Western Blot. Protein lysates were prepared by lysing cells directly in NP-40 buffer supplemented with a protease inhibitor cocktail (Complete EDTA-free, Roche Applied Science), […] and phosphatase inhibitors (Phosphatase Inhibitor Cocktail Sets I and II, Calbiochem). Cells suspended in lysis buffer were sonicated for 10 seconds of active sonication, followed by 20 seconds of rest for 3 cycles at 20% amplitude. The lysate was then centrifuged at 14,000 rpm for 10 mins at 4° C. and the supernatant was harvested. A BCA protein assay kit (Pierce) was used to measure and normalize protein concentration. 30 μg of the cell lysate was run on a 4-20% gradient polyacrylamide gel with SDS (Biorad) and electroblotted onto polyvinylidene difluoride membranes (PVDF) (Millipore). Membranes were blocked in TBS-T with 5% non-fat milk and 0.1% Tween and probed with primary antibodies (Table 1). Horseradish-peroxidase-conjugated secondary antibodies (Vector Biolaboratories) were used to detect membrane-bound proteins. Blots were developed using Clarity Max Western ECL Blotting Substrate (Biorad). Signaling experiments are representative of at least two independent experiments.

[7] = tested on: SNU-1079 cells (IDHm ICC); assay: cells; conditions: Homo sapiens, read-out: Survival IC50
RBE cells (IDHm ICC) [8] = assay: cells; conditions: Homo sapiens, read-out: Survival IC50
ICC5 cells (IDHm ICC) [9] = assay: cells; conditions: Homo sapiens, read-out: Survival IC50
[10] = tested on: HuCCT1 cells (IDH WT ICC); assay: cells; conditions: Homo sapiens, HuCCT-1, read-out: Survival IC50
ICC2 cells (IDH WT ICC) [11] = assay: cells; conditions: Homo sapiens, read-out: Survival IC50

IC50 [1]: 0.0114 µM
Structure (SMILES): Cc1nc(Nc2ncc(C(=O)Nc3c(C)cccc3Cl)s2)cc(N2CCN(CCO)CC2)n1 [dasatinib]
IC50 (RBE cells (IDHm ICC) [2]): 0.00275 µM
IC50 [3]: 0.0979 µM
IC50 (ICC2 cells (IDH WT ICC) [4]): 0.0506 µM
IC50 (ICC5 cells (IDHm ICC) [5]): 0.00593 µM
IC50 (CCLP1 cells (IDH WT ICC)): 8.04 µM
effect on pathways evaluated (S6K/S6, ERK, STAT3) [6]: no effect
IC50 [7]: 0.0226 µM
IC50 (RBE cells (IDHm ICC) [8]): 0.0041 µM
IC50 (ICC5 cells (IDHm ICC) [9]): 0.0417 µM
IC50 [10]: 0.977 µM
IC50 (ICC2 cells (IDH WT ICC) [11]): 0.162 µM
